The text below walks through data of PMC11189555, “Aryl amino acetamides prevent Plasmodium falciparum ring development via targeting the lipid-transfer protein PfSTART1” (Nature Communications, 2024).

Values joined by “and” are separate entries in the source; they are usually repeats but may differ in a detail not shown here. Equal entries are not always repeated.

One assay concerns ring-stage 3D7 parasites. Nature of the assay: Stage arrest and recovery assay (SYBR Green flow cytometry, Giemsa smears). Format: cell-based, Plasmodium falciparum. To be noted: for growth after washout of compound: 48 h treatment, then washout, 6 days post washout (T = 192 h); for ring morphology after 48 h / schizont development at 36 h / impact on already-developed rings or trophozoites: M-833 2 µM, W-991 60 nM from ring stage; for impact on already-developed rings or trophozoites: one cycle; for Parasitemia derived from flow cytometry: replicates 1 and 2. As for the experimental part:
Parasites were synchronised using a Percoll density gradient (Cytiva) combined with 5% sorbitol lysis. Ring-stage parasites at 0-4 hours post-invasion at 2% parasitemia and haematocrit were then added to 2 µM M-833, 60 nM W-991 or 0.02% DMSO and incubated at 37 °C with compound replenished every 24 h. After 48 h, samples of M-833 and W-991-treated parasites were washed x 3 in complete RPMI to remove the compound and put back into culture for the remainder of the experiment. For the following two cycles of growth, samples were taken every 24 h to monitor recovery. Upon completion of time points, fixed cells were stained with 2.5 x SYBR Green (Invitrogen) in PBS, washed once in PBS, and analysed on the Attune Flow Cytometer (ThermoFisher Scientific). Giemsa-stained blood smears were visualised and imaged using a Nikon Eclipse E600 microscope.

The test system of assay [1] is M-833 resistant parasite populations (PopC, PopD, PopE). Nature of the assay: Growth inhibition of M-833 resistant populations (LDH). Format: cell-based, Plasmodium falciparum. As to the method: After three cycles of drug treatment, three parasite populations were identified as less susceptible to the compound and their growth in serially diluted M-833 after 72 h was measured by lactate dehydrogenase (LDH) activity assays. […] The two most resistant populations (PopD and PopE) were further cloned out by limiting dilution. […] To identify the target of M-833, genomic DNA was extracted from the clonal lines of PopD and PopE and subjected to whole genome sequencing using MinION technology and compared to clonal 3D7 parental parasites. This identified 14 non-synonymous single nucleotide polymorphisms (SNP) across nine different genes when compared to the 3D7 parental strain (Supplementary Data 1). The two genes that had SNPs present across all resistant clones were the P. falciparum liver stage antigen 1 gene (PF3D7_1036400) and P. falciparum stAR-related lipid transfer protein (PF3D7_0104200, PFA0210c; pfstart1). The former is not expressed in the blood stage[19]–[21] and comprises a large central repeat region which is problematic for variant calling. […] Collectively, all the identified mutations (N309K, I224F, N330K) were found within the central conserved START domain and predicted to face the lipid-binding pocket (Fig. 1C).
The drug was then removed, and parasites were allowed to recover. Another cycle of drug treatment (3 μM M-833) was then resumed. The resistant lines were cloned out by limiting dilution (diluting the culture into a 96-well plate to achieve an average of ~0.3 parasites per well), prior to growth inhibition assays and genomic DNA (gDNA) extraction (DNeasy Blood and Tissue kit (Qiagen)[18].
Parasite growth assays with inhibitory compounds were performed as per[11] and are fully described in the Supplementary Information. […]
and compound 4. Note that M-833 was first purchased from MolPort (MolPort -002-267-916) then made in-house at WEHI: the differences observed in EC50s across experiments are attributed to the different batches of M -833. For some experiments, 0, 0.25 or 2.5 mM of glucosamine (GlcN) was also added. Experiments were set up in technical duplicates or triplicates. Following a freeze -thaw cycle, lactate dehydrogenase (LDH) activity was assessed as an indicator of parasite growt h 5. 30 μL of parasite culture was incubated for 30 min in the dark with 75 μL Malstat mixture (0.1 M Tris pH 9.0, 20 g/L lactic acid, pH 7.5, 0.2% Triton-X100, 0.5 g/L acetylpyridine adenine dinucleotide (APAD, Sigma), 200 μg/mL nitroblue tetrazolium (NBT; Sigma), 1 μg/mL phenozine ethosulfate (PES; Sigma)). Absorbance was then measured at 650 nm, transformed using the formula below, plotted against the logarithm of the concentrations, and a non-linear regression (log(inhibitor) vs. response, variable slope) was calculated using GraphPad Prism to assess the half-inhibitory […]
Growth inhibition % = (1 − average(sample)− average(uRBC)) ∗ 100 […]
The DMSO samples were also used to assess growth of parasite in the presence of 0.25 and 2.5 mM GlcN (normalised by DMSO in 0 mM GlcN). […]

With `Cc1cc(Cl)c(S(=O)(=O)N2CCCC2)cc1OCC(=O)NC1CCCCC1` [M-833], in the assay with ring-stage 3D7 parasites, the “growth after washout of compound” value was “able to resume normal growth”. In addition, the “ring morphology after 48 h” value with ring-stage 3D7 parasites is on record as “presence of dysmorphic rings”. In addition, in the assay with ring-stage 3D7 parasites, the “schizont development at 36 h” value was “slight developmental delay of schizonts”. Moreover, the “impact on already-developed rings or trophozoites” value in the assay on ring-stage 3D7 parasites is on record as “did not indicate any impact”. Further, the “Parasitemia derived from flow cytometry” value was 2.571 and 1.962 in the assay with ring-stage 3D7 parasites (timepoint 0, no washout); 1.962 and 2.571 with ring-stage 3D7 parasites (timepoint 0, washout); 11.6017 and 7.415 in the assay with ring-stage 3D7 parasites (timepoint 48, no washout); 7.415 and 11.6017 in the assay with ring-stage 3D7 parasites (timepoint 48, washout); 6.175 and 3.315 in the assay with ring-stage 3D7 parasites (timepoint 96, no washout); 2.881 and 5.202 in the assay with ring-stage 3D7 parasites (timepoint 96, washout). Moreover, the “Parasitemia derived from flow cytometry” value with ring-stage 3D7 parasites (timepoint 144, no washout) was 3.175 and 1.778; in the assay on ring-stage 3D7 parasites (timepoint 144, washout) it was 2.202 and 4.604; in the assay with ring-stage 3D7 parasites (timepoint 192, no washout) it was 2.332 and 1.369; with ring-stage 3D7 parasites (timepoint 192, washout), 3.268 and 8.096; in the assay with ring-stage 3D7 parasites (timepoint 240, no washout) it was 2.528 and 1.343; in the assay with ring-stage 3D7 parasites (timepoint 240, washout) it was 6.874 and 13.4537. In addition, the “Growth (Abs) Normalised to DMSO” value was found to be 99.9117 in assay [1] (Population C, M-833 0.0390625 uM); 102.105 in assay [1] (Population C, M-833 0.078125 uM); 99.9558 in assay [1] (Population C, M-833 0.15625 uM); 98.7636 in assay [1] (Population C, M-833 0.3125 uM); 92.6626 in assay [1] (Population C, M-833 0.625 uM); 74.9632 in assay [1] (Population C, M-833 1.25 uM). Also, the “Growth (Abs) Normalised to DMSO” value in assay [1] (Population C, M-833 2.5 uM) stood at 42.7878; in assay [1] (Population C, M-833 5 uM) it was 8.5443; in assay [1] (Population C, M-833 10 uM) it was 1.435; in assay [1] (Population D, M-833 0.0390625 uM) it was 100.282; in assay [1] (Population D, M-833 0.078125 uM), 101.574; in assay [1] (Population D, M-833 0.15625 uM), 100.622. Also, the “Growth (Abs) Normalised to DMSO” value in assay [1] (Population D, M-833 0.3125 uM) is on record as 100.758; in assay [1] (Population D, M-833 0.625 uM) it was 96.1318; in assay [1] (Population D, M-833 1.25 uM), 94.9752; in assay [1] (Population D, M-833 2.5 uM) it was 84.3814; in assay [1] (Population D, M-833 5 uM), 63.806; in assay [1] (Population D, M-833 10 uM), 31.8884. In addition, the “Growth (Abs) Normalised to DMSO” value worked out at 101.958 in assay [1] (Population E, M-833 0.0390625 uM); 104.075 in assay [1] (Population E, M-833 0.078125 uM); 104.451 in assay [1] (Population E, M-833 0.15625 uM); 103.313 in assay [1] (Population E, M-833 0.3125 uM); 104.846 in assay [1] (Population E, M-833 0.625 uM); 106.755 in assay [1] (Population E, M-833 1.25 uM). Further, the “Growth (Abs) Normalised to DMSO” value in assay [1] (Population E, M-833 2.5 uM) was found to be 98.4077; in assay [1] (Population E, M-833 5 uM), 90.3966; in assay [1] (Population E, M-833 10 uM), 68.0744. Further, the “increase in EC50 compared to 3D7 parasites” value in assay [1] (cloned PopD and PopE lines, Fig 1B) amounted to 17 fold.

As for `CC(C)(Nc1ccc(Cl)c(S(=O)(=O)N2CCOCC2)c1)C(=O)Nc1ccc(F)c(Cl)c1` [W-991], the “growth after washout of compound” value in the assay on ring-stage 3D7 parasites is listed as “able to resume normal growth”. The “reduction in parasitemia vs DMSO (Giemsa-stained smears)” value in the assay on ring-stage 3D7 parasites (60 h time point) is 1.3 fold. Further, the “ring morphology after 48 h” value with ring-stage 3D7 parasites is on record as “presence of dysmorphic rings”. Further, the “schizont development at 36 h” value with ring-stage 3D7 parasites is “slight developmental delay of schizonts”. Besides, in the assay with ring-stage 3D7 parasites, the “impact on already-developed rings or trophozoites” value is recorded as “did not indicate any impact”. The “Parasitemia derived from flow cytometry” value was 2.571 and 1.962 with ring-stage 3D7 parasites (timepoint 0, no washout); 2.571 and 1.962 with ring-stage 3D7 parasites (timepoint 0, washout); 11.0007 and 8.084 in the assay on ring-stage 3D7 parasites (timepoint 48, no washout); 11.0007 and 8.084 in the assay on ring-stage 3D7 parasites (timepoint 48, washout); 5.782 and 3.338 in the assay with ring-stage 3D7 parasites (timepoint 96, no washout); 5.455 and 2.599 in the assay with ring-stage 3D7 parasites (timepoint 96, washout). In addition, the “Parasitemia derived from flow cytometry” value with ring-stage 3D7 parasites (timepoint 144, no washout) is 3.388 and 1.894; with ring-stage 3D7 parasites (timepoint 144, washout) it was 3.848 and 1.766; in the assay on ring-stage 3D7 parasites (timepoint 192, no washout) it was 2.379 and 1.388; with ring-stage 3D7 parasites (timepoint 192, washout), 4.263 and 2.036; in the assay with ring-stage 3D7 parasites (timepoint 240, no washout), 2.587 and 1.356; with ring-stage 3D7 parasites (timepoint 240, washout) it was 6.983 and 2.934.

Take `O=C(CNc1ccc(Cl)c(S(=O)(=O)N2CCOCC2)c1)Nc1ccc(F)c(Cl)c1` [compound 2, reference compound]: the “activity against M-833-resistant populations” value in assay [1] (Fig 4B) is reported as “cross-resistant”.
